According to paper PMC4774911, “Biochemical Screening of Five Protein Kinases from Plasmodium falciparum against 14,000 Cell-Active Compounds” (PLoS ONE, 2016):
Values joined by “and” are separate entries in the source; they are usually repeats but may differ in a detail not shown here. Identical values can stand only once.

Assays:
Experiment in all cases: biochemical
AAK1 = AAK1 (Homo sapiens, UniProt Q2M2I8)
ACVR1 = target: T1, ACVR1 (Homo sapiens, UniProt Q04771)
T1 sequence (Q04771 1-509): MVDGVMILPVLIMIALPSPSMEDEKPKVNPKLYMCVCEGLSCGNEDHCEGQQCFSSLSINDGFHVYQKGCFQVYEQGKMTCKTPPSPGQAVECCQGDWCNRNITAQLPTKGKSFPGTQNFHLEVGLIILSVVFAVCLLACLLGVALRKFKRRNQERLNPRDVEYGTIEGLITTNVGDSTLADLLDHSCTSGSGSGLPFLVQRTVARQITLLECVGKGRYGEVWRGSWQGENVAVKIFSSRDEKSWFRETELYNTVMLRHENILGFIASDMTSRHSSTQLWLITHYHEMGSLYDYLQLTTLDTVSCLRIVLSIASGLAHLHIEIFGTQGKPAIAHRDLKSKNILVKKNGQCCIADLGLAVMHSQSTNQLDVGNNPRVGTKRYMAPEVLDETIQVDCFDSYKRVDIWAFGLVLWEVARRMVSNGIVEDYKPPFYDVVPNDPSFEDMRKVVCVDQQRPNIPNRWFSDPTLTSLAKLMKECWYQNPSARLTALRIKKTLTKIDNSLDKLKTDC

CABC1 = CABC1 (Homo sapiens, UniProt Q8NI60)
Chain of CABC1 (Q8NI60 whole entry): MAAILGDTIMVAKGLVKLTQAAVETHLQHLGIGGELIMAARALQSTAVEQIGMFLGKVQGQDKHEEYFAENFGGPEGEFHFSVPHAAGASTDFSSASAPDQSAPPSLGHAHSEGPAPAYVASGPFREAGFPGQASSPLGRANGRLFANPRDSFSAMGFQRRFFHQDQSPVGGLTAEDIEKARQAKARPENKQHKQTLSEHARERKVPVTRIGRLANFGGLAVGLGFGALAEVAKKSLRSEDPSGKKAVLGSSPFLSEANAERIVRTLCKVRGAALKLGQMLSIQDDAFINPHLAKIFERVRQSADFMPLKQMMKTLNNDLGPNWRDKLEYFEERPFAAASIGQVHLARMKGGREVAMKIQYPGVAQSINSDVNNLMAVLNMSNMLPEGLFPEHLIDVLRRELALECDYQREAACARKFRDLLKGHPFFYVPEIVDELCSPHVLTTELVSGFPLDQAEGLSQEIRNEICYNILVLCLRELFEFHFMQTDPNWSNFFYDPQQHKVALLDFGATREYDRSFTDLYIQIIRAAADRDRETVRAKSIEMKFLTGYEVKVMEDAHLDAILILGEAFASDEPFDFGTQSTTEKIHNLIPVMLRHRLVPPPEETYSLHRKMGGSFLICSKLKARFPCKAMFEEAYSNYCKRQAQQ

CDK9 = CDK9 (Homo sapiens, UniProt P50750)
Chain of CDK9 (P50750 whole entry): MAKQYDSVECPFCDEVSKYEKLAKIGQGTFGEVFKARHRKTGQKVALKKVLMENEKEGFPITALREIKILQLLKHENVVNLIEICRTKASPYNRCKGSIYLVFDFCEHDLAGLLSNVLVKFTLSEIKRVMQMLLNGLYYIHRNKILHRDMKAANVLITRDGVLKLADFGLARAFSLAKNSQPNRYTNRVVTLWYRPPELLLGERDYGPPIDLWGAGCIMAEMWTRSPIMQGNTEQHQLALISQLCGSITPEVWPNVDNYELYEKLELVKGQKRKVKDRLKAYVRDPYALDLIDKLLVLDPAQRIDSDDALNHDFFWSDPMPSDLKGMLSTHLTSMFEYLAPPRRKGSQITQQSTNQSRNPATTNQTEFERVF

CSNK1D = CSNK1D (Homo sapiens, UniProt P48730)
Chain of CSNK1D (P48730 whole entry): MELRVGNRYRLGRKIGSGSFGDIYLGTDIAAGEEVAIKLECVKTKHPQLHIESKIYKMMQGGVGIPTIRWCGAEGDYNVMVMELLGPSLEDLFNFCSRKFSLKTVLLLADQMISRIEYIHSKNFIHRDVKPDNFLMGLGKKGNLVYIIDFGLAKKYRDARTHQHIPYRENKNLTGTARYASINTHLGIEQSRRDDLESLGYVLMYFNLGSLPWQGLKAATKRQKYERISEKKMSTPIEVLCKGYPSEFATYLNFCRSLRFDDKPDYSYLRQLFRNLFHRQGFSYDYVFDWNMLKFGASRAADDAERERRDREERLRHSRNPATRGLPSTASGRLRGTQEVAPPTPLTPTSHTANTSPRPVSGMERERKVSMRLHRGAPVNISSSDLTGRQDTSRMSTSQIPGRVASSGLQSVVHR

KIAA0999 = KIAA0999 (Homo sapiens, UniProt Q9Y2K2)
MAP4K5 = MAP4K5 (Homo sapiens, UniProt Q9Y4K4)
Chain of MAP4K5 (Q9Y4K4 whole entry): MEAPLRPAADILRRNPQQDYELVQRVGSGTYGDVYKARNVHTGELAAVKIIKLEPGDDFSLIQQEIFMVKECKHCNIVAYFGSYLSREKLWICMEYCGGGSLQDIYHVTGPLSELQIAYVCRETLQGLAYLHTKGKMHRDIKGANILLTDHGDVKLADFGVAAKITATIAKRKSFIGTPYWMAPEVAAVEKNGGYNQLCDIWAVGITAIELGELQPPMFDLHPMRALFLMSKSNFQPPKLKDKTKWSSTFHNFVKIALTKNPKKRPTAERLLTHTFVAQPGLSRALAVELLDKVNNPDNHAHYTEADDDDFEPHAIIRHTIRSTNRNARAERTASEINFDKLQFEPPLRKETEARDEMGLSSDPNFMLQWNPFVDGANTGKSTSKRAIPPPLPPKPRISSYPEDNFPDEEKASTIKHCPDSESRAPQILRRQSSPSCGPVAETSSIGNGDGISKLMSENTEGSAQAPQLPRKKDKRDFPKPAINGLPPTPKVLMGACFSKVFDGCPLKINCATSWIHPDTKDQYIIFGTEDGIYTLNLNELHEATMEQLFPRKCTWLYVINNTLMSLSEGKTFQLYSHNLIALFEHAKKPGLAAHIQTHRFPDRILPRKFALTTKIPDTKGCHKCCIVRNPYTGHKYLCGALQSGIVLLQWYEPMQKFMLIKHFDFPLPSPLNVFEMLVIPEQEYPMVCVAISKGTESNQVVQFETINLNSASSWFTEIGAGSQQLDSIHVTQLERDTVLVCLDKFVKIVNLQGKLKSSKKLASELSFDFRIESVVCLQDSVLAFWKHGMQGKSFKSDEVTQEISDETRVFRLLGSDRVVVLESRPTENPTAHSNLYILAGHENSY

MYLK3 = target: T2, MYLK3 (Homo sapiens, UniProt Q32MK0)
T2 sequence (Q32MK0 1-819): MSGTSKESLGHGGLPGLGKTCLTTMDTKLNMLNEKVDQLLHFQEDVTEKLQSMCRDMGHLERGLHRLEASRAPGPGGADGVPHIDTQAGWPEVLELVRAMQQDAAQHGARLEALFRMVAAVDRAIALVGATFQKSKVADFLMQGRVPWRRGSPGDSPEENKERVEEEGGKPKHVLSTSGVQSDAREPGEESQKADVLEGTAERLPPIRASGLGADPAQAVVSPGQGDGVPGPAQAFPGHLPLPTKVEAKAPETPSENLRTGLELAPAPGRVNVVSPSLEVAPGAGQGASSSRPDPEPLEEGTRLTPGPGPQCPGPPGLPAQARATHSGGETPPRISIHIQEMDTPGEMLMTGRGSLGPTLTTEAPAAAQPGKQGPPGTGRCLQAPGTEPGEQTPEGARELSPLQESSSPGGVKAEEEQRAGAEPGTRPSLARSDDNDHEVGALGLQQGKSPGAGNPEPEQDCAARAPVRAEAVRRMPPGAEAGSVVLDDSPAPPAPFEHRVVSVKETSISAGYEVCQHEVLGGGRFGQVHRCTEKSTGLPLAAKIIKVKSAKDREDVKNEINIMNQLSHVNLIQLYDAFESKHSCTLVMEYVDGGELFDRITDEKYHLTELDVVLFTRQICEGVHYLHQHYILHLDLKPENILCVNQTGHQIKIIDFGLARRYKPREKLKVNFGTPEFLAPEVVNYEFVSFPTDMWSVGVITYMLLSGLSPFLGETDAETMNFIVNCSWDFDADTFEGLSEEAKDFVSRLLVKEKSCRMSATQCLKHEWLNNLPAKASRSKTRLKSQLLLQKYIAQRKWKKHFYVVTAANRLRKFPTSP

PCTK2 = PCTK2 (Homo sapiens, UniProt Q00537)
Chain of PCTK2 (Q00537 whole entry): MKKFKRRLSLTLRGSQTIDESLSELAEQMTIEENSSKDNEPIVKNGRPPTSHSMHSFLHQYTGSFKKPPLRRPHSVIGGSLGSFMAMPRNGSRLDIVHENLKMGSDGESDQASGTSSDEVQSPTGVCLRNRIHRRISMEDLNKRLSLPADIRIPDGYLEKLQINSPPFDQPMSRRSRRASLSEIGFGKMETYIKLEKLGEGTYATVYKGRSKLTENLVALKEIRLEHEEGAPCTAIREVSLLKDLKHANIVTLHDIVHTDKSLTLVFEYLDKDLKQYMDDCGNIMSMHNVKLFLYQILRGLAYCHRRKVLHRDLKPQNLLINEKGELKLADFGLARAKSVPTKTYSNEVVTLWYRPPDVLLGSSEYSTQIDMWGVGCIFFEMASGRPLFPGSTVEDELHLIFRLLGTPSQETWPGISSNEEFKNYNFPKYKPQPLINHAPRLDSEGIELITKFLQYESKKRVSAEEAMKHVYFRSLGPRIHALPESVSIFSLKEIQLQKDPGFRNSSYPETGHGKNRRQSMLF

PIM1 = PIM1 (Homo sapiens, UniProt P11309)
Chain of PIM1 (P11309 whole entry): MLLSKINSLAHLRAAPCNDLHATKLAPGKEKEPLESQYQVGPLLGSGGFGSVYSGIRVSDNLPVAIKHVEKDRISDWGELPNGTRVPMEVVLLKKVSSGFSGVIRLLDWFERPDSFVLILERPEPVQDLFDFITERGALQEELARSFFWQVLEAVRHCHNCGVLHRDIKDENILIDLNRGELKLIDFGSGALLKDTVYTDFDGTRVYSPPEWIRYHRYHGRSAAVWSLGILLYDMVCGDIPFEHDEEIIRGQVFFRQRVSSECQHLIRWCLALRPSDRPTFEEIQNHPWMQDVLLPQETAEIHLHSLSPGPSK

PRKCA = PRKCA (Homo sapiens, UniProt P17252)
RIPK2 = RIPK2 (Homo sapiens, UniProt O43353)

Chain of AAK1 (Q2M2I8 whole entry): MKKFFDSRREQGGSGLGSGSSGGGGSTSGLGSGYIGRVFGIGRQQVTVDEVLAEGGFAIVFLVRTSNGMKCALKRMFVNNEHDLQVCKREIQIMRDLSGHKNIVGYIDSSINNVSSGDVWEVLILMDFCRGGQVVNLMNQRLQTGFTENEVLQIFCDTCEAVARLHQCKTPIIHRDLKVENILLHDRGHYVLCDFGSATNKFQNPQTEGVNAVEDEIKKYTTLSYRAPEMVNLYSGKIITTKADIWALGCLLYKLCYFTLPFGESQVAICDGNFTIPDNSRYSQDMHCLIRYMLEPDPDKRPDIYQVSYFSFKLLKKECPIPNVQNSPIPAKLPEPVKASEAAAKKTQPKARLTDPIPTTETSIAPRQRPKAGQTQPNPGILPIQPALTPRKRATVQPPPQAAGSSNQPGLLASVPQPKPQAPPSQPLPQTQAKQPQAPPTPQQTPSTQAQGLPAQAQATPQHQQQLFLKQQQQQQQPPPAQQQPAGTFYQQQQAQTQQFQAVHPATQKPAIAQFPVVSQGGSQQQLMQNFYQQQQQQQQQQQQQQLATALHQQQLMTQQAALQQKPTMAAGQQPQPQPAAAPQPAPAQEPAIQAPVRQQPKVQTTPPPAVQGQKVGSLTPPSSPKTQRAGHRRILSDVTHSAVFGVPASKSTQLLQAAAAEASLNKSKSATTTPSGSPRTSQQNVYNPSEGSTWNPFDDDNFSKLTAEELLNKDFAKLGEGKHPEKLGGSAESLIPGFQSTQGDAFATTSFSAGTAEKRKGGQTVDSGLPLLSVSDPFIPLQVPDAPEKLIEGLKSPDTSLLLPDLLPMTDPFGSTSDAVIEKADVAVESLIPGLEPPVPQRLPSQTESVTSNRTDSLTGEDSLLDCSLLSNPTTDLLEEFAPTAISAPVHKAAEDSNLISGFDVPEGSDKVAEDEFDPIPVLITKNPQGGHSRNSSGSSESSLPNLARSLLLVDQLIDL

SMILES	IC50 (AAK1)	IC50 (ACVR1)	IC50 (CABC1)	IC50 (CDK9)	IC50 (CSNK1D)	IC50 (KIAA0999)	IC50 (MAP4K5)	IC50 (MYLK3)	IC50 (PCTK2)	IC50 (PIM1)	IC50 (PRKCA)	IC50 (RIPK2)
CN(C)CC(O)COc1ccc(Nc2ncc([N+](=O)[O-])c(Nc3ccccc3O)n2)cc1.O=C(O)C(F)(F)F (stereo not drawn) [TCMDC-141399]	> 20000 nM	> 20000 nM	> 20000 nM	5300 nM and 7300 nM	> 20000 nM	> 20000 nM	4300 nM	2100 nM and 1800 nM	1500 nM and 1400 nM	> 20000 nM	> 20000 nM	> 20000 nM
Cl.NCC1(c2nc(-c3ccc(Cl)c(O)c3)c(-c3ccncc3)[nH]2)CCCCC1 [TCMDC-141154]	> 20000 nM	> 20000 nM	> 20000 nM	> 20000 nM	69 nM and 79 nM	66 nM and 51 nM	5000 nM	> 20000 nM	> 20000 nM	> 20000 nM	> 20000 nM	43 nM and 52 nM
CN1CCN(c2ccc(Nc3ncc(C#N)c(Nc4ccccc4C(N)=O)n3)cc2)CC1.Cl [TCMDC-134116]	190 nM	8200 nM	> 20000 nM	1100 nM and 750 nM	1800 nM	350 nM and 250 nM	280 nM and 290 nM	67 nM and 93 nM	76 nM and 110 nM	7200 nM and 6000 nM	740 nM	810 nM
